Laboratory results reported in publication PMC8062851, “2-Methoxyestradiol and its derivatives inhibit store-operated Ca^2+ entry in T cells: Identification of a new and potent inhibitor” (Biochimica et Biophysica Acta. Molecular Cell Research, 2021).
Entries after “also recorded” stand apart in the source; their conditions may differ.

Legend:
IP3 receptors = test: IP3-evoked Ca2+ release in permeabilized Jurkat T cells; assay type: cell-based, human; conditions: 2 μM IP3
Protocol: 3 ∗ 10^7 Jurkat T-lymphocytes per measurement were centrifuged at 450 ×g for 5 min at room temperature. The pellet was rinsed twice, each time using 10 ml permeabilization buffer 1 (120 mM KCl, 10 mM NaCl, 1.2 mM MgCl2, 0.533 mM CaCl2, 1 mM EGTA and 10 mM HEPES, pH 7.2 (KOH), sterile filtered). Subsequently, the pellet was resuspended in 2 ml permeabilization buffer 1 containing 80 μg/ml saponin (Fluka) and the cells were incubated for 10 min at 37 °C. Subsequently, the cells were centrifuged at 450 ×g for 5 min at room temperature and the cell pellet was washed once in 10 ml permeabilization buffer 2 (120 mM KCl, 10 mM NaCl, 1.2 mM MgCl2 and 10 mM HEPES, pH 7.2 (KOH), sterile filtered). Finally, the cells were taken up in 1 ml permeabilization buffer 2, placed into a cuvette and measured at the fluorescence spectrophotometer. Before the start of the measurement, 0.5 μl of 1 mM Fura2 free acid (dissolved in pure water, final concentration: 0.5 μM), 5 μl of 5 mg/ml creatinkinase (dissolved in permeabilization buffer 2, final concentration: 25 μg/ml, 20 U/ml, Roche) and 10 μl of 2 M creatin phosphate (dissolved in permeabilization buffer 2, final concentration: 20 mM, Calbiochem) were added. Fura2 was used to measure the Ca^2+ concentration and creatinkinase and creatin phosphate were used as ATP-regenerating system. The measurement was controlled by FL Solutions (Version 4.1, Hitachi High-Technologies Corporation). Fura2 was alternatively excited every 2 s at 340 ± 5 nm and 380 ± 5 nm, each 400 ms apart. Fluorescence intensity was measured at an emission wavelength of 495 ± 5 nm for both excitation wavelengths. […] Ca^2+ concentrations were calculated according to Grynkiewicz et al. as described earlier in Section 2.4.
As a quantitative read-out for inhibition of IP3 receptors, the peak [Ca^2+] after IP3 addition was subtracted from the mean [Ca^2+] between 25 and 75 s before IP3 addition (dPeak). […] The rate constant K of the fitted data was used as a quantitative read-out for SERCA pump activity and its inhibition.

TMBP cells [1] = test: In vitro activation of TMBP cells by MBP, cytokine mRNA by qPCR; assay type: cell-based, rat
Protocol: Myelin basic protein (MBP)-reactive CD4^+ T cells retrovirally transduced to express enhanced GFP (TMBP cells) were established as previously reported. In brief, 6–8 week old female Lewis rats were immunized subcutaneously with 150 μl of emulsion consisting of equal parts of MBP (stock concentration: 1 mg/ml) and complete Freund's adjuvant containing heat-inactivated Mycobacterium tuberculosis extract (Difco; stock concentration: 2 mg/ml). Draining lymph nodes were harvested and passed through a cell strainer (40 μm) 9–10 days after immunization. The cell suspension was co-cultured with GP + E86 packaging cell lines producing replication-deficient retroviruses in the presence of 10 μg/ml MBP. Murine IL-2 was added to the culture for T cell expansion from day 2–4 after stimulation. The cell lines underwent 3–4 cycles of stimulation before being used for in vitro and in vivo experiments. […] Upon stimulation, they produced interferon-γ and IL-17.
(§1) In vitro activation assays were performed in 96-well plates. […]. TMBP cell activation on mRNA level was determined using qPCR and on surface protein level using surface marker staining and subsequent flow cytometry analysis.
Total RNA was isolated using the standard TRIzol method. cDNA was synthesized using the RevertAid First Strand cDNA Synthesis Kit (Thermo Fisher Scientific). Quantitative PCR (qPCR) was performed using the StepOnePlus™ Real-Time PCR System (Applied Biosystems), as previously described [[23], [24], [25]]. Rat TMBP cell data were obtained from three to four independent duplicate measurements. β-actin served as housekeeping gene. Human PBMC data were obtained from two independent healthy donors and duplicate measurements (representative data of one donor are shown). HPRT served as housekeeping gene. For all probes (TaqMan), a combination of 5′-FAM and 3′-TAMRA quencher was used as described.

TMBP cells [2] = test: In vitro activation of TMBP cells by MBP, CD25 surface expression by flow cytometry; assay type: cell-based, rat
Protocol: as §1
To assess in vitro T cell activation, surface staining for CD25 (OX39, Bio-Rad) was performed. APC-labelled goat anti-mouse antibody (Jackson ImmunoResearch) was used as secondary antibody. Mouse IgG1κ (MOPC 31C, Sigma-Aldrich) was used as control.
Cytofluorometric analysis was carried out with a CytoFLEX S (Beckman Coulter) operated by CytExpert software (Beckman Coulter). All procedures were performed at 4 °C. Data were analyzed by using FlowJo software (FlowJo, LLC).

CCc1cc2c(cc1OS(N)(=O)=O)CC[C@@H]1[C@@H]2CC[C@]2(C)[C@@H](CC#N)CC[C@@H]12 [STX564, 2-ethyl-3-sulfamoyloxy-17β-cyanomethylestra-1,3,5(10)-triene]
effect on IP3-evoked Ca2+ release (IP3 receptors): Neither STX564 nor Synta66 affected IP3-evoked Ca^2+ release significantly; also recorded: did not inhibit the Ca^2+ release by IP3
concentration at which TCR/CD3-evoked pro-inflammatory cytokine expression was significantly reduced (TMBP cells [1]; TMBP cells + MBP, 6 h, qPCR): ≥ 0.1 µM
concentration at which interferon-γ expression was significantly antagonized (TMBP cells [1]; TMBP cells + MBP, 6 h, qPCR, STX564 vs Synta66): ≥ 0.1 µM
fold higher antagonist potency over Synta66, pro-inflammatory cytokine expression (TMBP cells [1]; rat effector TMBP cells, especially INF-γ expression): approx. 100 fold
concentration at which up-regulation of CD25 was significantly reduced (TMBP cells [2]): ≥ 0.1 µM
